# Test results published in patent US7722892B2, “Compounds” (Syngenta Crop Protection, Inc., priority 2001, dated 2010).
# Tests used:
# [1] = tested on: TRZAW Triticum aestivum (wheat); assay: Glasshouse weed kill, adjuvant with fluazifop-P-butyl, track sprayer; assay type: in vivo; conditions: adjuvant 0.2% v/v, 21 days after treatment; for ED90 TRZAW (concentration required to provide 90% weed kill): fluazifop-p-butyl rate, 200 l/ha; for Mean Activity (% weed kill) TRZAW: with fluazifop-p-butyl, mean of 3 replicates and 4 rates
# Protocol: (§1) An agrochemical composition was prepared containing 0.2% v/v of an adjuvant in a track sprayer containing fluazifop P butyl emulsified at one of four different concentrations. Weeds which had been grown to the 2.3 leaf stage were sprayed using volumes of 200 l/ha. Each sample was replicated three times. The following weed species were tested:— • AVEFA Avena fatua (wild oats) • LOLRI Lolium rigidum (rye grass) • TRZAW Triticum aestivum (wheat) • SETVI Setaria viridis (green foxtails)
# (§2) Activity was measured 21 days after treatment and was compared with a standard composition containing only fluazifop-p-butyl. The concentration required to provide 90% weed kill was calculated and is given in TABLE 1 below together with the mean ED90 across the species.
# (§3) Further adjuvants of the present invention were tested for activity in combination with fluzifop-p-butyl. Activity (% weed kill) was measured 21 days after treatment and is given as a mean of 3 replicates and 4 rates of fluazifop-p-butyl. All adjuvants were applied at 0.2% v/v. The results are given in Table 2 in comparison with a corresponding composition containing no adjuvant.
# [2] = tested on: AVEFA Avena fatua (wild oats); assay: as above; assay type: in vivo; conditions: adjuvant 0.2% v/v, 21 days after treatment; for ED90 AVEFA (concentration required to provide 90% weed kill): fluazifop-p-butyl rate, 200 l/ha; for Mean Activity (% weed kill) AVEFA: with fluazifop-p-butyl, mean of 3 replicates and 4 rates
# Protocol: as §1, §2, §3
# [3] = tested on: LOLRI Lolium rigidum (rye grass); assay: as above; assay type: in vivo; conditions: adjuvant 0.2% v/v, 21 days after treatment; for ED90 LOLRI (concentration required to provide 90% weed kill): fluazifop-p-butyl rate, 200 l/ha; for Mean Activity (% weed kill) LOLRI: with fluazifop-p-butyl, mean of 3 replicates and 4 rates
# Protocol: as §1, §2, §3
# [4] = tested on: SETVI Setaria viridis (green foxtails); assay: as above; assay type: in vivo; conditions: adjuvant 0.2% v/v, 21 days after treatment; for ED90 SETVI (concentration required to provide 90% weed kill): fluazifop-p-butyl rate, 200 l/ha; for Mean Activity (% weed kill) SETVI: with fluazifop-p-butyl, mean of 3 replicates and 4 rates
# Protocol: as §1, §2, §3
# [5] = tested on: AVEFA, LOLRI, TRZAW, SETVI; assay: Weed kill with fluazifop-P-butyl, mean across the species; assay type: in vivo; conditions: adjuvant 0.2% v/v, 21 days after treatment; for Mean ED90 across the species: fluazifop-p-butyl rate; for Mean Activity (% weed kill) Mean over all species: with fluazifop-p-butyl
# Protocol: as §1, §2, §3
# [6] = tested on: APESV (Apera Spica-Venti); assay: Adjuvant with thin leaved grass herbicide (oxadiazepine pivalate ester), track sprayer; assay type: in vivo; conditions: 200 l/ha, average of two replicates
# Protocol: (§4) The indicated adjuvants were evaluated in combination with a thin leaved grass herbicide 2,2,-dimethyl-propionic acid-8-(2,6-diethyl-4-methyl-phenyl)-9-oxo-1,2,4,5-tetrahydro-9H-pyrazolo[1,2-d][1,4,5]oxadiazepine-7-yl ester. The weeds were sprayed at the growth stages shown in the table with pesticide emulsions using a track sprayer and volumes of 200 l/ha. The adjuvants were added at 5% v/v as tank mix additives. Each result is the average of two replicates.
# LOLMU = assay: as above; assay type: in vivo; conditions: 200 l/ha, average of two replicates
# Protocol: as §4
# ALOMY = assay: as above; assay type: in vivo; conditions: 200 l/ha, average of two replicates
# Protocol: as §4
# [7] = tested on: PHAPA (Phalaris paradoxa); assay: as above; assay type: in vivo; conditions: 200 l/ha, average of two replicates
# Protocol: as §4
# AVEFA = assay: as above; assay type: in vivo, Avena fatua; conditions: 200 l/ha, average of two replicates
# Protocol: as §4
# [8] = tested on: ALOMY, APESV, AVEFA, LOLMU, PHAPA; assay: Adjuvant with thin leaved grass herbicide, mean of all weeds; assay type: in vivo
# Protocol: as §4
# Puccinia recondita = assay: Glasshouse disease control with azoxystrobin on inoculated barley; assay type: in vivo; conditions: adjuvant 0.5% v/v tank mix, four replicates
# Protocol: The results quoted are the mean percentage disease control from four replicates on barley inoculated with Puccinia recondita. The adjuvant was added as a 0.5% v/v tank mix.
Substance,ED90 TRZAW (concentration required to provide 90% weed kill) [1],Mean Activity (% weed kill) TRZAW [1],ED90 AVEFA (concentration required to provide 90% weed kill) [2],Mean Activity (% weed kill) AVEFA [2],ED90 LOLRI (concentration required to provide 90% weed kill) [3],Mean Activity (% weed kill) LOLRI [3],ED90 SETVI (concentration required to provide 90% weed kill) [4],Mean Activity (% weed kill) SETVI [4],Mean ED90 across the species [5],Mean Activity (% weed kill) Mean over all species [5],further results
Oleyl 20 Propylene Oxide End-Capped butyl ether [Oleyl 20P Bu Ether],32.2 g/ha,38.8%,23.4 g/ha,67.4%,48.6 g/ha,46%,19 g/ha,75.9%,30.8 g/ha,57%,–
Oleyl 10 Ethylene Oxide End-Capped Butyl Ether [Oleyl 10 EO Bu ether],–,56%,–,73.3%,–,56.5%,–,85.6%,–,68%,APESV activity ([6]; herbicide rate 5 gai/ha): 53; APESV activity ([6]; herbicide rate 7.5 gai/ha): 97; APESV activity ([6]; herbicide rate 10 gai/ha): 98; LOLMU activity (LOLMU; herbicide rate 5 gai/ha): 91; LOLMU activity (LOLMU; herbicide rate 7.5 gai/ha): 98; LOLMU activity (LOLMU; herbicide rate 10 gai/ha): 93; ALOMY activity (ALOMY; herbicide rate 5 gai/ha): 53; ALOMY activity (ALOMY; herbicide rate 7.5 gai/ha): 75; ALOMY activity (ALOMY; herbicide rate 10 gai/ha): 88; PHAPA activity ([7]; herbicide rate 5 gai/ha): 93; PHAPA activity ([7]; herbicide rate 7.5 gai/ha): 96; PHAPA activity ([7]; herbicide rate 10 gai/ha): 99; AVEFA activity (AVEFA; herbicide rate 5 gai/ha): 89; AVEFA activity (AVEFA; herbicide rate 7.5 gai/ha): 98; AVEFA activity (AVEFA; herbicide rate 10 gai/ha): 99; Mean All Weeds ([8]; herbicide rate 5 gai/ha): 76; Mean All Weeds ([8]; herbicide rate 7.5 gai/ha): 93; Mean All Weeds ([8]; herbicide rate 10 gai/ha): 95
Oleyl 20 Ethylene Oxide End-Capped Butyl Ether [Oleyl 20E Bu Ether],21.4 g/ha,59.3%,19.5 g/ha,76.1%,27.5 g/ha,68.8%,16.5 g/ha,78.1%,21.2 g/ha,71%,mean percentage disease control (Puccinia recondita; Azoxystrobin 0 mgai/l): 5.9%; mean percentage disease control (Puccinia recondita; Azoxystrobin 0.625 mgai/l (Quadris 25 SC)): 66.5%; mean percentage disease control (Puccinia recondita; Azoxystrobin 1.25 mgai/l (Quadris 25 SC)): 82.7%; mean percentage disease control (Puccinia recondita; Azoxystrobin 2.5 mgai/l (Quadris 25 SC)): 90.5%
Oleic Acid 10 Ethylene Oxide End-Capped Methyl Ether [Oleic 10E Me Ether],28.4 g/ha,56.1%,16.7 g/ha,71.3%,34.8 g/ha,56.2%,15.8 g/ha,78.4%,23.9 g/ha,66%,–
Oleyl 10 Propylene Oxide End-Capped butyl ether [Oleyl 10P Bu Ether],29.2 g/ha,45.8%,19.8 g/ha,71.4%,34.9 g/ha,54.4%,16.7 g/ha,84.2%,25.2 g/ha,64%,–
Oleic Acid 20 Ethylene Oxide End-Capped Methyl Ether [Oleyl 20 EO Me ether],–,52.1%,–,72.3%,–,54.9%,–,74.6%,–,63%,–
Isostearyl (2-hexyl-dodecan-1-ol) 10 Propylene Oxide [Isostearyl 10 PO],–,53.8%,–,67.8%,–,51.8%,–,81.8%,–,64%,–
Isostearyl (2-hexyl-dodecan-1-ol) 20 Propylene Oxide [Isostearyl 20 PO],–,37.3%,–,58%,–,52.5%,–,80.9%,–,57%,–
Oleyl 20 Propylene Oxide [Oleyl 20 PO],–,53.3%,–,70.6%,–,36.3%,–,80.4%,–,60%,–
Oleyl 10 Propylene Oxide [Oleyl 10PO],–,54.3%,–,72.6%,–,55.9%,–,84.6%,–,67%,APESV activity ([6]; herbicide rate 5 gai/ha): 23; APESV activity ([6]; herbicide rate 7.5 gai/ha): 89; APESV activity ([6]; herbicide rate 10 gai/ha): 98; LOLMU activity (LOLMU; herbicide rate 5 gai/ha): 33; LOLMU activity (LOLMU; herbicide rate 7.5 gai/ha): 60; LOLMU activity (LOLMU; herbicide rate 10 gai/ha): 80; ALOMY activity (ALOMY; herbicide rate 5 gai/ha): 55; ALOMY activity (ALOMY; herbicide rate 7.5 gai/ha): 70; ALOMY activity (ALOMY; herbicide rate 10 gai/ha): 92; PHAPA activity ([7]; herbicide rate 5 gai/ha): 23; PHAPA activity ([7]; herbicide rate 7.5 gai/ha): 98; PHAPA activity ([7]; herbicide rate 10 gai/ha): 99; AVEFA activity (AVEFA; herbicide rate 5 gai/ha): 70; AVEFA activity (AVEFA; herbicide rate 7.5 gai/ha): 96; AVEFA activity (AVEFA; herbicide rate 10 gai/ha): 98; Mean All Weeds ([8]; herbicide rate 5 gai/ha): 41; Mean All Weeds ([8]; herbicide rate 7.5 gai/ha): 83; Mean All Weeds ([8]; herbicide rate 10 gai/ha): 93
